{"source": "patent EP4398053A1", "about": "“CONTROL METHOD FOR […] OF A DYNAMIC SYSTEM AND […]” (Universidade de Aveiro, priority 2023, dated 2024)", "origin": "cited, not measured here", "conditions": "drug elimination within the body; drug-specific model parameter"}
{"smiles": "O=P1(N(CCCl)CCCl)NCCCO1", "note": "(stereo not shown) [Cyclophosphamide]", "values": [{"measurement": "drug elimination rate λ", "result": 4.16, "unit": "day⁻¹"}]}
